The text below walks through data of patent US4399126A, “Modulators of the complement system” (American Cyanamid Company, priority 1982, dated 1983).

Experiment [1] relates to complement system. Particulars: Br. J. Exp. Pathol. 33: 327 (1952); cited from earlier work.
Experiment [2] deals with hereditary angioneurotic edema. As to conditions: literature reports; cited from earlier work.
Experiment [3] addresses T1, activated human C1 (Homo sapiens, UniProt P09871).
T1 sequence (P09871 16-437 limits assumed): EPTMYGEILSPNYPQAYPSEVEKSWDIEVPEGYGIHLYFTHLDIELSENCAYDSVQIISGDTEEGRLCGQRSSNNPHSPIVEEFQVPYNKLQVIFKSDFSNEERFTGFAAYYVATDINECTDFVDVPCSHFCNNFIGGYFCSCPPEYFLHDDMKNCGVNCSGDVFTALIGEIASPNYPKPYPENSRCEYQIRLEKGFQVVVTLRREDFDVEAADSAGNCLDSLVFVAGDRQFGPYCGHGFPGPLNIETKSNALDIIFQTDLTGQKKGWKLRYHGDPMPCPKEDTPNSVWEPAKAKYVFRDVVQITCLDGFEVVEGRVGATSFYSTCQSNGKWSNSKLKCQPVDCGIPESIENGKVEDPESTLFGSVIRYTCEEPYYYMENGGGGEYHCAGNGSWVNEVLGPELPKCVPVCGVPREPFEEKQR
T1 sequence (P09871 438-688 limits assumed): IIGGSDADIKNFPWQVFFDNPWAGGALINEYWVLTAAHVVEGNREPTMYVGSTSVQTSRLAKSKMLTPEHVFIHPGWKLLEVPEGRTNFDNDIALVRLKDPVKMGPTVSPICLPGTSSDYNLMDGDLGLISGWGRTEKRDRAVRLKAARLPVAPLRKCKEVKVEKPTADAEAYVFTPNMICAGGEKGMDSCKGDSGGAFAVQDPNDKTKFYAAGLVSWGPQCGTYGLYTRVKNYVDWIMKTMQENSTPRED
In words: Test Code 026 (C1 inhibitor). The format is biochemical. As to conditions: serial twofold dilution assay; higher well number indicates higher activity.

Experiment [4] deals with complement activity of sera. Kind of experiment: Guinea Pig Intraperitoneal Test (GPIP). Particulars: Cavia porcellus, ip, 200 mg/kg i.p., capillary complement assay. The format is in vivo. How it is done: Percent inhibition is calculated by comparison with simultaneous controls.
Experiment [5] concerns late components of human complement (C3-C9). In words: Test Code 035 (C3-C9 inhibitor), lysis of EAC 142. The format is biochemical. As to conditions: serial twofold dilution assay; higher well number indicates higher activity.
Experiment [6] has as its system human serum. As to conditions: in vitro and in vivo, judged by reduction in total hemolytic complement activity; cited from earlier work.
[7] abbreviates: blood 2 hours after injection, read-out: in vivo Activity Guinea Pig % Inhibition Intraperitoneal, 2 hours.
Setting [8] is: blood 6 hours after injection, read-out: in vivo Activity Guinea Pig % Inhibition Intraperitoneal, 6 hours.
Where [9] appears, read: blood 24 hours after injection, read-out: in vivo Activity Guinea Pig % Inhibition Intraperitoneal, 24 hours.

Like-named read-outs stand apart in the source and are kept apart here.

`Nc1ccc2cc(S(=O)(=O)[O-])cc(O)c2c1N=Nc1ccc(NC(=O)Nc2ccc(N=Nc3c(N)ccc4cc(S(=O)(=O)[O-])cc(O)c34)c(S(=O)(=O)[O-])c2)cc1S(=O)(=O)[O-].[Na+].[Na+].[Na+].[Na+]` [chlorazol fast pink, 3,3'-ureylenebis-[6-(2-amino-8-hydroxy-6-sulfo-1-naphthylazo)benzenesulfonic acid], tetrasodium salt]: in experiment [1], the anticomplementary effect entry is “anticomplementary effect”.

`NCCCCCC(=O)O` [epsilon-aminocaproic acid]: the “success in the treatment of hereditary angioneurotic edema” value in experiment [2] is “used with success”.

In general, inhibition refers to the percentage by which the read-out fell short of the control. As to `O=C(CCCC(=O)Nc1ccc(S[C@@H]2O[C@H](COS(=O)(=O)O)[C@@H](O[C@H]3O[C@H](COS(=O)(=O)O)[C@@H](OS(=O)(=O)O)[C@H](OS(=O)(=O)O)[C@H]3OS(=O)(=O)O)[C@H](OS(=O)(=O)O)[C@H]2OS(=O)(=O)O)cc1)Nc1ccc(S[C@@H]2O[C@H](COS(=O)(=O)O)[C@@H](O[C@H]3O[C@H](COS(=O)(=O)O)[C@@H](OS(=O)(=O)O)[C@H](OS(=O)(=O)O)[C@H]3OS(=O)(=O)O)[C@H](OS(=O)(=O)O)[C@H]2OS(=O)(=O)O)cc1.[Na].[Na].[Na].[Na].[Na].[Na].[Na].[Na].[Na].[Na].[Na].[Na].[Na].[Na]` [tetradecasodium N,N'-bis[4-[2,3,6-tri-O-sulfo-4-O-(2,3,4,6-tetra-O-sulfo-α-D-glucopyranosyl)-β-D-glucopyranosylthio]phenyl]pentanediamide], the “in vitro Activity Cl 026 Wells” value in experiment [3] is reported as 9.9 Wells. The values for the inhibition at 200 mg/kg in experiment [4] (setting [7]), in experiment [4] (setting [8]) and in experiment [4] (setting [9]) were 90%, 88% and 44%, respectively. The “in vitro Activity C-Late 035 Wells” value in experiment [5] is 1.5 Wells.

Take `O=C(CC(=O)Nc1ccc(S[C@@H]2O[C@H](COS(=O)(=O)O)[C@@H](O[C@H]3O[C@H](COS(=O)(=O)O)[C@@H](OS(=O)(=O)O)[C@H](OS(=O)(=O)O)[C@H]3OS(=O)(=O)O)[C@H](OS(=O)(=O)O)[C@H]2OS(=O)(=O)O)cc1)Nc1ccc(S[C@@H]2O[C@H](COS(=O)(=O)O)[C@@H](O[C@H]3O[C@H](COS(=O)(=O)O)[C@@H](OS(=O)(=O)O)[C@H](OS(=O)(=O)O)[C@H]3OS(=O)(=O)O)[C@H](OS(=O)(=O)O)[C@H]2OS(=O)(=O)O)cc1.[Na].[Na].[Na].[Na].[Na].[Na].[Na].[Na].[Na].[Na].[Na].[Na].[Na].[Na]` [tetradecasodium N,N'-bis[4-[2,3,6-tri-O-sulfo-4-O-(2,3,4,6-tetra-O-sulfo-α-D-glucopyranosyl)-β-D-glucopyranosylthio]phenyl]propanediamide]: in experiment [3], the “in vitro Activity Cl 026 Wells” value was 9.9 Wells. For the same molecule, the inhibition at 200 mg/kg in experiment [4] (setting [7]) was 90%; in experiment [4] (setting [8]) it was 90%; in experiment [4] (setting [9]), 47%. Also, the “in vitro Activity C-Late 035 Wells” value in experiment [5] was found to be 1.6 Wells.

Turning to `NC[C@H]1CC[C@H](C(=O)O)CC1` [tranexamic acid], the “success in the treatment of hereditary angioneurotic edema” value in experiment [2] is “used with success”.

For heparin, in experiment [1], the anticomplementary effect result is given as “anticomplementary effect”.

pentosan-polysulfoester: the “anticomplementary activity on human serum” value in experiment [6] is “anticomplementary activity”.
